Source: BigSolDB 2.1

N[C@@H](CC(=O)N1CCn2c(nnc2C(F)(F)F)C1)Cc1cc(F)c(F)cc1F
Settings	solubility (mole fraction)
in THF, 278.15 K	0.0212
in THF, 283.15 K	0.0274
in THF, 288.15 K	0.0322
in THF, 293.15 K	0.0363
in THF, 298.15 K	0.0463
in THF, 303.15 K	0.0554
in THF, 308.15 K	0.0625
in THF, 313.15 K	0.0756
in THF, 318.15 K	0.0933
in THF, 323.25 K	0.114
in acetonitrile, 278.15 K	0.0265
in acetonitrile, 283.15 K	0.0354
in acetonitrile, 288.15 K	0.0432
in acetonitrile, 293.15 K	0.0536
in acetonitrile, 298.15 K	0.0576
in acetonitrile, 303.15 K	0.0681
in acetonitrile, 308.15 K	0.0888
in acetonitrile, 313.15 K	0.105
in acetonitrile, 318.15 K	0.128
in acetonitrile, 323.15 K	0.156
in ethanol, 273.15 K	0.00768
in ethanol, 278.15 K	0.0108
in ethanol, 283.15 K	0.0138
in ethanol, 288.15 K	0.0179
in ethanol, 293.15 K	0.0233
in ethanol, 298.15 K	0.0298
in ethanol, 303.15 K	0.0363
in ethanol, 308.15 K	0.0451
in ethanol, 313.15 K	0.0606
in ethanol, 318.15 K	0.078
in ethyl acetate, 278.15 K	0.00986
in ethyl acetate, 283.15 K	0.0117
in ethyl acetate, 288.15 K	0.014
in ethyl acetate, 293.15 K	0.0167
in ethyl acetate, 298.15 K	0.02
in ethyl acetate, 303.15 K	0.0242
in ethyl acetate, 308.15 K	0.0286
in ethyl acetate, 313.15 K	0.0353
in ethyl acetate, 318.15 K	0.0435
in ethyl acetate, 323.15 K	0.0565
in isobutanol, 278.15 K	0.0101
in isobutanol, 283.15 K	0.0123
in isobutanol, 288.15 K	0.014
in isobutanol, 293.15 K	0.0158
in isobutanol, 298.15 K	0.0191
in isobutanol, 303.15 K	0.0216
in isobutanol, 308.15 K	0.0255
in isobutanol, 313.15 K	0.0301
in isobutanol, 318.15 K	0.0334
in isobutanol, 323.15 K	0.0379
in isopentanol, 278.15 K	0.00453
in isopentanol, 283.15 K	0.0054
in isopentanol, 288.15 K	0.00647
in isopentanol, 293.15 K	0.00801
in isopentanol, 298.15 K	0.0104
in isopentanol, 303.15 K	0.0123
in isopentanol, 308.15 K	0.0154
in isopentanol, 313.15 K	0.0184
in isopentanol, 318.15 K	0.0232
in isopentanol, 323.15 K	0.0316
in isopropanol, 273.15 K	0.00439
in isopropanol, 278.15 K	0.00482
in isopropanol, 283.15 K	0.00579
in isopropanol, 288.15 K	0.00703
in isopropanol, 293.15 K	0.00857
in isopropanol, 298.15 K	0.0103
in isopropanol, 303.15 K	0.0122
in isopropanol, 308.15 K	0.0139
in isopropanol, 313.15 K	0.0162
in isopropanol, 318.15 K	0.0188
in methyl acetate, 278.15 K	0.0397
in methyl acetate, 283.15 K	0.05
in methyl acetate, 288.15 K	0.0545
in methyl acetate, 293.15 K	0.063
in methyl acetate, 298.15 K	0.0728
in methyl acetate, 303.15 K	0.0835
in methyl acetate, 308.15 K	0.0954
in methyl acetate, 313.15 K	0.111
in methyl acetate, 318.15 K	0.126
in methyl acetate, 323.15 K	0.139
in n-butanol, 278.15 K	0.0105
in n-butanol, 283.15 K	0.0129
in n-butanol, 288.15 K	0.0141
in n-butanol, 293.15 K	0.0177
in n-butanol, 298.15 K	0.0208
in n-butanol, 303.15 K	0.0243
in n-butanol, 308.15 K	0.0262
in n-butanol, 313.15 K	0.0328
in n-butanol, 318.15 K	0.0382
in n-butanol, 323.15 K	0.0452
in n-propanol, 278.15 K	0.00795
in n-propanol, 283.15 K	0.011
in n-propanol, 288.15 K	0.0123
in n-propanol, 293.15 K	0.0183
in n-propanol, 298.15 K	0.022
in n-propanol, 303.15 K	0.0278
in n-propanol, 308.15 K	0.0387
in n-propanol, 313.1 K	0.0433
in n-propanol, 318.15 K	0.0572
in n-propanol, 323.15 K	0.0804
in sec-butanol, 278.15 K	0.00274
in sec-butanol, 283.15 K	0.00346
in sec-butanol, 288.15 K	0.0047
in sec-butanol, 293.15 K	0.00513
in sec-butanol, 298.15 K	0.00739
in sec-butanol, 303.15 K	0.00958
in sec-butanol, 308.15 K	0.0115
in sec-butanol, 313.15 K	0.0142
in sec-butanol, 318.15 K	0.0194
in sec-butanol, 323.15 K	0.0224
in water, 278.15 K	0.000281
in water, 283.15 K	0.000319
in water, 288.15 K	0.000349
in water, 293.15 K	0.000376
in water, 298.15 K	0.00042
in water, 303.15 K	0.000458
in water, 308.15 K	0.000499
in water, 313.15 K	0.000542
in water, 318.15 K	0.000574
in water, 323.15 K	0.000633
